# From US8993282B2, “Carotenoid fermentation method” (JX Nippon Oil & Energy Corporation, priority 2008, dated 2015)
# Columns and labels:
# [1] = system: mutant Paracoccus sp. strain Y-1071; test: Glutamate vs yeast extract supplementation, test tube culture (defined medium), carotenoid by HPLC; format: cell-based
# Method: (§1) In the examples, carotenoids were quantified by high performance liquid chromatography (HPLC) as follows.
# (§2) Two columns of Wakosil-II 5 SIL-100 (φ4.6×250 mm) (Wako Pure Chemical Industries, Ltd., Japan) were connected to each other for use as a column. Elution was performed by flowing an n-hexane-tetrahydrofuran-methanol mixed solution (40:20:1), which was a mobile phase, at a flow rate of 1.0 mL/minute at a constant temperature around room temperature. The measurement was performed as follows. Samples were each dissolved in tetrahydrofuran and then diluted 100-fold with the mobile phase. Each dilution was injected in a volume of 20 μL. The column eluate was detected at a wavelength of 470 nm. As a reference for quantification, astaxanthin (SIGMA, Cat. No. A9335) was used. The astaxanthin concentration of the reference solution was determined using the following equation after measuring the absorbance (A) of the reference solution at 477 nm and the area percentage % (B) of the astaxanthin peak at the time of HPLC analysis under the above conditions. Astaxanthin concentration (mg/L)=A/2150×B×100
# A medium of the following composition (glucose 20 g/L, dry yeast 5 g/L, potassium dihydrogenphosphate 1.5 g/L, disodium hydrogenphosphate 12-hydrate 3.8 g/L, calcium chloride dihydrate 0.1 g/L, magnesium sulfate 7-hydrate 0.7 g/L, iron sulfate 7-hydrate 3 g/L, pH 7.2) was dispensed in 8 ml volumes into cotton-plugged test tubes having an inner diameter of 18 mm and sterilized in an autoclave at 121° C. for 15 minutes to prepare a test tube medium for seed culture.
# Next, a medium of the following composition (glucose 40 g/L, ammonium sulfate 1.5 g/L, potassium dihydrogenphosphate 0.54 g/L, dipotassium hydrogenphosphate 2,78 g/L, calcium chloride dihydrate 1 g/L, sodium chloride 3 g/L, magnesium sulfate 7-hydrate 0.7 g/L, iron sulfate 7-hydrate 5 g/L, zinc sulfate 7-hydrate 2 mg/L, cobalt chloride 6-hydrate 2 mg/L, copper sulfate 5-hydrate 1 mg/L, manganese sulfate 5-hydrate 4 mg/L, sodium molybdate dihydrate 2 mg/L, nickel sulfate 6-hydrate 1 mg/L, sodium selenate 0.5 mg/L, boric acid 5 mg/L, potassium iodide 1 mg/L, cyanocobalamin 1 mg/L, riboflavin 10 mg/L, calcium pantothenate 15 mg/L, pyridoxine hydrochloride salt 20 mg/L, thiamine hydrochloride salt […], ascorbic acid 30 mg/L, folic acid 1 mg/L, niacin 15 mg/L, p-aminobenzoic acid 10 mg/L, biotin 0.1 mg/L, myo-inositol 50 mg/L, choline 10 mg/L, polyether-based defoaming agent 0.2 g/L) was dispensed in 8 ml volumes into cotton-plugged test tubes having an inner diameter of 18 mm (4 tubes in total).
# For use in this medium, glucose, inorganic salts, trace metals and vitamins were prepared separately. Glucose, inorganic salts and trace metals were sterilized by heating at 121° C. for 15 minutes, while vitamins were sterilized by filtration. Then, these 4 solutions were mixed together.
# Further, one of the test tubes was supplemented with a heat-sterilized aqueous solution of monosodium L-glutamate monohydrate to 6 g/L (32 mmol/L), another tube was supplemented with a heat-sterilized aqueous yeast extract to 6 g/L, another tube was supplemented with the same yeast extract to 12 g/L, and the other tube was supplemented with nothing. Finally, the mediums in the tubes were aseptically supplemented with 12% aqueous ammonia to give pH 7.2.
# The mutant Paracoccus sp. strain Y-1071 selected in Example 3 was inoculated into the test tube medium for seed culture and then cultured with shaking at 30° C. for 2 days at 300 spm. The resulting culture solution was then inoculated in 0.1 ml volumes into the 4 test tube media and cultured with shaking at 3(1° C. for 3 days at 300 spm.
# Each culture solution was measured for its carotenoid concentration by HPLC.
# [2] = system: Paracoccus sp. strain K-185; test: Glutamate supplementation, test tube culture (soybean meal medium), carotenoid by HPLC; format: cell-based
# Method: as §1
# as §2, with “conditions.” for “conditions. Astaxanthin concentration (mg/L)=A/2150×B×100”
# Next, a medium of the following composition (glucose 30 g/L, soybean meal 20 g/L, ammonium sulfate 1.5 g/L, potassium dihydrogenphosphate 1.5 g/L, disodium hydrogenphosphate 12-hydrate 3.8 g/L, calcium chloride dihydrate 5.0 g/L, magnesium sulfate 7-hydrate 0.7 g/L, iron sulfate 7-hydrate 0.6 g/L, ester-based defoaming agent 0.2 g/L) was dispensed in 8 ml volumes into cotton-plugged test tubes having an inner diameter of 18 mm (2 tubes in total). One of the test tubes was supplemented with monosodium L-glutamate monohydrate to 30 mmol/L, while the other was supplemented with nothing as a control.
# The resulting culture solution was then inoculated in 0.1. ml volumes into the two test tube mediums and cultured with shaking at 28° C. for 3 days at 300 spm. Each culture solution was measured for its carotenoid concentration by HPLC.
# [3] = Glutamic acid concentration 30 mmol/L, 28° C. for 3 days
compound,measurement,setting,value
"N[C@@H](CCC(=O)O)C(=O)O [Glutamic acid, glutamic acid]",produced carotenoid concentration compared to the sample without glutamic acid,"[1]; glutamic acid 6 g/L (32 mmol/L), yeast extract 6 g/L and 12 g/L",higher produced carotenoid concentration
same,"Produced carotenoid concentration, 3-Hydroxyechinenone","[1]; supplement 6 g/L, 3 days",0.2 mg/L
same,"Produced carotenoid concentration, Adonixanthin","[1]; supplement 6 g/L, 3 days",3.3 mg/L
same,"Produced carotenoid concentration, Astaxanthin","[1]; supplement 6 g/L, 3 days",13.7 mg/L
same,"Produced carotenoid concentration, Asteroidenone","[1]; supplement 6 g/L, 3 days",0.2 mg/L
same,"Produced carotenoid concentration, Canthaxanthin","[1]; supplement 6 g/L, 3 days",1.8 mg/L
same,"Produced carotenoid concentration, Echinenone","[1]; supplement 6 g/L, 3 days",0.9 mg/L
same,"Produced carotenoid concentration, Phoenicoxanthin","[1]; supplement 6 g/L, 3 days",4.1 mg/L
same,"Produced carotenoid concentration, Total Carotenoid","[1]; supplement 6 g/L, 3 days",26.3 mg/L
same,"Produced carotenoid concentration, Zeaxanthin","[1]; supplement 6 g/L, 3 days",0.06 mg/L
same,"Produced carotenoid concentration, β-Carotene","[1]; supplement 6 g/L, 3 days",2.0 mg/L
same,"Produced carotenoid concentration, β-Cryptoxanthin","[1]; supplement 6 g/L, 3 days",0.02 mg/L
same,produced carotenoid concentration compared to the sample without glutamic acid,[2]; 30 mmol/L,higher produced carotenoid concentration
same,3-Hydroxyechinenone,[2]; [3],0.1 mg/L
same,Adonixanthin,[2]; [3],1.6 mg/L
same,Astaxanthin,[2]; [3],9.2 mg/L
same,Asteroidenone,[2]; [3],0.1 mg/L
same,Canthaxanthin,[2]; [3],1.3 mg/L
same,Echinenone,[2]; [3],0.6 mg/L
same,Phoenicoxanthin,[2]; [3],2.0 mg/L
same,Total carotenoid,[2]; [3],17.1 mg/L
same,Zeaxanthin,[2]; [3],0.03 mg/L
same,β-Carotene,[2]; [3],2.1 mg/L
same,β-Cryptoxanthin,[2]; [3],0.02 mg/L
